Measurements: US20260217701A1, “SELECTIVE BET INHIBITORS AND USES THEREOF” (Tay Therapeutics Limited, priority 2022, published 2026)

Tests used:
BRD4 BD2 = molecular target: T1, BRD4 BD2 (Homo sapiens, UniProt O60885); experiment: NanoBRET bromodomain assay, NanoLuc-BRD4-BD2 in HEK293 cells; assay type: binding; conditions: for Fold Selectivity BRD4 BD1/BD2: IC50 BD1/IC50 BD2, qualitative if an IC50 is at the upper limit
T1 construct: HEK293 cells were transfected using NanoLuc-BRD4-BD1 or NanoLuc-BRD4-BD2 fusion vectors
Method: (§1) Plates were then incubated at 37° C.+5% CO2 incubator for 2 hours.
(§2) Fold Selectivity Calculated (IC50 BD1/IC50 BD2).

BRD4 BD1 = molecular target: T2, BRD4 BD1 (Homo sapiens, UniProt O60885); experiment: NanoBRET bromodomain assay, NanoLuc-BRD4-BD1 in HEK293 cells; assay type: binding
T2 construct: HEK293 cells were transfected using NanoLuc-BRD4-BD1 or NanoLuc-BRD4-BD2 fusion vectors
Method: Exemplary compounds of the disclosure are active against BRD4 BD2 and selective over BRD4 BD1. BRD4 is a representative example of the BET family, as the binding sites of all BET family members are structurally similar. […] IC50s and fold selectivity's are determined as described below and are represented in Table 1.
as §1, §2

| SMILES | IC50 (BRD4 BD2) [nM] | Fold Selectivity BRD4 BD1/BD2 (BRD4 BD2) | IC50 (BRD4 BD1) [nM] |
| --- | --- | --- | --- |
| Cc1cccc(C)c1Oc1cn(C2CC2)c(=O)cc1-c1cn(C)c(=O)c2[nH]c(-c3cccc(F)c3F)cc12 [Example 87] | > 1000 | — (Fold ≥0 and ≤2) | > 1000 |
| Cn1cc(-c2cccc(CS(C)(=O)=O)c2)c(-c2cn(C)c(=O)c3[nH]c(-c4ccc(F)cc4F)cc23)cc1=O [Example 77] | 50 to 200 | xx (Fold >50 and ≤200) | > 1000 |
| Cc1cccc(C)c1Oc1cn(C)c(=O)cc1-c1cn(C)c(=O)c2[nH]c(-c3cnn(C(F)F)c3)cc12 [Example 12, 2-(1-(difluoromethyl)-1H-pyrazol-4-yl)-4-(5-(2,6-dimethylphenoxy)-1-methyl-2-oxo-1,2-dihydropyridin-4-yl)-6-methyl-1,6-dihydro-7H-pyrrolo[2,3-c]pyridin-7-one] | 10 to 50 | xxx (Fold >200 and ≤1000) | > 1000 |
| Cc1cccc(C)c1Oc1cn(C2CC2)c(=O)cc1-c1cn(C)c(=O)c2[nH]c(-c3cn(C)nc3C)cc12 [Example 94] | 10 to 50 | xxx (Fold >200 and ≤1000) | > 1000 |
| Cn1cc(-c2ccccc2)c(-c2cn(C)c(=O)c3[nH]c(-c4cnn(C(F)(F)F)c4)cc23)cc1=O [Example 34, 6-methyl-4-(1-methyl-2-oxo-5-phenyl-1,2-dihydropyridin-4-yl)-2-(1-(trifluoromethyl)-1H-pyrazol-4-yl)-1,6-dihydro-7H-pyrrolo[2,3-c]pyridin-7-one] | < 10 | xxxx (Fold >1000) | > 1000 |
| Cn1cc(-c2cccc(CN3CCOCC3)c2)c(-c2cn(C)c(=O)c3[nH]c(-c4ccc(F)cc4F)cc23)cc1=O [Example 36, 2-(2,4-difluorophenyl)-6-methyl-4-(1-methyl-5-(3-(morpholinomethyl)phenyl)-2-oxo-1,2-dihydropyridin-4-yl)-1,6-dihydro-7H-pyrrolo[2,3-c]pyridin-7-one] | 10 to 50 | xxx (Fold >200 and ≤1000) | > 1000 |
| Cc1cccc(C)c1Oc1cn(C)c(=O)cc1-c1cn(C)c(=O)c2[nH]c(-c3cnn(C(F)(F)F)c3)cc12 [Example 11, 4-(5-(2,6-dimethylphenoxy)-1-methyl-2-oxo-1,2-dihydropyridin-4-yl)-6-methyl-2-(1-(trifluoromethyl)-1H-pyrazol-4-yl)-1,6-dihydro-7H-pyrrolo[2,3-c]pyridin-7-one] | < 10 | xxxx (Fold >1000) | > 1000 |
| Cn1cc(-c2cc(=O)n(CCN3CCOCC3)cc2-c2ccccc2)c2cc(-c3cnn(C(F)(F)F)c3)[nH]c2c1=O [Example 62, 6-methyl-4-(1-(2-morpholinoethyl)-2-oxo-5-phenyl-1,2-dihydropyridin-4-yl)-2-(1-(trifluoromethyl)-1H-pyrazol-4-yl)-1,6-dihydro-7H-pyrrolo[2,3-c]pyridin-7-one] | < 10 | xxxx (Fold >1000) | > 1000 |
| COCCOc1cccc(-c2cn(C)c(=O)cc2-c2cn(C)c(=O)c3[nH]c(-c4ccc(F)cc4F)cc23)c1 [Example 53, 2-(2,4-difluorophenyl)-4-(5-(3-(2-methoxyethoxy)phenyl)-1-methyl-2-oxo-1,2-dihydropyridin-4-yl)-6-methyl-1,6-dihydro-7H-pyrrolo[2,3-c]pyridin-7-one] | < 10 | xxxx (Fold >1000) | > 1000 |

Now from value to compound:

| IC50 (BRD4 BD2) [nM] | Fold Selectivity BRD4 BD1/BD2 (BRD4 BD2) | IC50 (BRD4 BD1) [nM] | SMILES |
| --- | --- | --- | --- |
| < 10 | xxxx (Fold >1000) | > 1000 | Cc1cc(-c2cc3c(-c4cc(=O)n(C5CC5)cc4-c4ccccc4)cn(C)c(=O)c3[nH]2)cc(C)n1.Cl [Example 28, 4-(1-cyclopropyl-2-oxo-5-phenyl-1,2-dihydropyridin-4-yl)-2-(2,6-dimethylpyridin-4-yl)-6-methyl-1,6-dihydro-7H-pyrrolo[2,3-c]pyridin-7-one hydrogen chloride] |
| < 10 | xxxx (Fold >1000) | > 1000 | Cc1cc(-c2cc3c(-c4cc(=O)n(C)cc4-c4ccc(F)cc4)cn(C)c(=O)c3[nH]2)cc(C)n1.Cl [Example 30, 2-(2,6-dimethylpyridin-4-yl)-4-(5-(4-fluorophenyl)-1-methyl-2-oxo-1,2-dihydropyridin-4-yl)-6-methyl-1,6-dihydro-7H-pyrrolo[2,3-c]pyridin-7-one hydrochloride] |
| < 10 | xxxx (Fold >1000) | > 1000 | Cc1cccc(C)c1Oc1cn(C)c(=O)cc1-c1cn(C)c(=O)c2[nH]c(-c3cccc(CO)c3F)cc12 [Example 57, 4-(5-(2,6-dimethylphenoxy)-1-methyl-2-oxo-1,2-dihydropyridin-4-yl)-2-(2-fluoro-3-(hydroxymethyl)phenyl)-6-methyl-1,6-dihydro-7H-pyrrolo[2,3-c]pyridin-7-one] |
| 10 to 50 | xxx (Fold >200 and ≤1000) | > 1000 | Cc1cccc(C)c1Oc1cn(C)c(=O)cc1-c1cn(C)c(=O)c2[nH]c(-c3ccc(OC(F)F)cc3F)cc12 [Example 97] |
| < 10 | xxxx (Fold >1000) | > 1000 | COc1cccc(-c2cc3c(-c4cc(=O)n(C5CC5)cc4-c4ccccc4)cn(C)c(=O)c3[nH]2)c1F [Example 50, 4-(1-cyclopropyl-2-oxo-5-phenyl-1,2-dihydropyridin-4-yl)-2-(2-fluoro-3-methoxyphenyl)-6-methyl-1,6-dihydro-7H-pyrrolo[2,3-c]pyridin-7-one] |
| 50 to 200 | xx (Fold >50 and ≤200) | > 1000 | Cn1cc(-c2ccccc2)c(-c2cn(C)c(=O)c3[nH]c(-c4c(F)cccc4F)cc23)cc1=O [Example 82] |
| < 10 | xxxx (Fold >1000) | > 1000 | COCCn1cc(-c2ccccc2)c(-c2cn(C)c(=O)c3[nH]c(-c4cnn(C(F)(F)F)c4)cc23)cc1=O [Example 52, 4-(1-(2-methoxyethyl)-2-oxo-5-phenyl-1,2-dihydropyridin-4-yl)-6-methyl-2-(1-(trifluoromethyl)-1H-pyrazol-4-yl)-1,6-dihydro-7H-pyrrolo[2,3-c]pyridin-7-one] |
| 10 to 50 | xxx (Fold >200 and ≤1000) | > 1000 | Cc1c(-c2cnn(C(F)(F)F)c2)[nH]c2c(=O)n(C)cc(-c3cc(=O)n(C)cc3-c3ccccc3)c12 [Example 20, 3,6-dimethyl-4-(1-methyl-2-oxo-5-phenyl-1,2-dihydropyridin-4-yl)-2-(1-(trifluoromethyl)-1H-pyrazol-4-yl)-1,6-dihydro-7H-pyrrolo[2,3-c]pyridin-7-one] |
| 10 to 50 | xxx (Fold >200 and ≤1000) | > 1000 | CC(C)n1cc(-c2cc3c(-c4cc(=O)n(C)cc4-c4cccc(CN5CCOCC5)c4)cn(C)c(=O)c3[nH]2)cn1 [Example 78] |
| 10 to 50 | x (Fold >2 and ≤50) | 500 to 1000 | Cc1cccc(C)c1Oc1cn(C)c(=O)cc1-c1cn(C)c(=O)c2[nH]c(-c3cnn(CC#N)c3)cc12 [Example 96] |
| 50 to 200 | xx (Fold >50 and ≤200) | > 1000 | Cn1ccc(-c2cc3c(-c4cc(=O)n(C)cc4-c4ccccc4)cn(C)c(=O)c3[nH]2)cc1=O [Example 81] |
